The text below walks through data of patent US7902373B2 (Pfizer Inc, priority 2006, dated 2011).

The experiment deals with human recombinant H-PGDS (Homo sapiens, UniProt O60760). Briefly: Fluorescence intensity h-PGDS TBA enzyme assay. It counts as biochemical. The settings on record: Examples up to 622 (and 3a, 3b).

Each structure is given as a SMILES string. pIC50: −log10 of the molar value.

human recombinant H-PGDS, sequence (O60760 whole entry): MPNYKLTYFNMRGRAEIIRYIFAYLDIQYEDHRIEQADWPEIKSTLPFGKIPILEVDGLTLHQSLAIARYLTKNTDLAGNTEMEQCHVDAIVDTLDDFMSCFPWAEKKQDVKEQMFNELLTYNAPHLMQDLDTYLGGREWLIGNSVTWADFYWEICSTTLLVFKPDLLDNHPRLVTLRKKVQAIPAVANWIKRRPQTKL

The term pIC50 denotes the IC50 on a negative log10 scale, so that one unit is a factor of ten. Regarding `CC1C=CC(C)N1C(=O)c1ccc(N2CCC(NC(=O)c3ccc(-c4cccc(F)c4)nc3)CC2)nc1` (stereo not shown) [Example 578, N-(1-{5-[(2,5-Dimethyl-2,5-dihydro-1H-pyrrol-1-yl)carbonyl]pyridin-2-yl}piperidin-4-yl)-6-(3-fluorophenyl)nicotinamide], the pIC50 was 8.51.
In the case of `O=C(NC1CCN(c2ncc3c(n2)CCOC3)CC1)c1ccc(-c2cccc(F)c2)nc1` [Example 579, N-[1-(7,8-Dihydro-5H-pyrano[4,3-d]pyrimidin-2-yl)piperidin-4-yl]-6-(3-fluorophenyl)nicotinamide] it was 8.98; in that of `O=C(NC1CCN(c2cccnn2)CC1)c1ccc(-c2cccc(F)c2)nc1` [Example 580, 6-(3-Fluorophenyl)-N-(1-pyridazin-3-ylpiperidin-4-yl)nicotinamide], 9.46.
With `O=C(NC1CCN(CC(F)(F)F)CC1)c1ccc(-c2cc(F)ccc2F)nc1` [Example 583, 6-(2,5-Difluorophenyl)-N-[1-(2,2,2-trifluoroethyl)piperidin-4-yl]nicotinamide] the figure was 8.98; with `CCOC(=O)N1CCC(NC(=O)c2ccc(-c3cc(F)ccc3F)nc2)CC1` [Example 584, Ethyl 4-({[6-(2,5-Difluorophenyl)pyridine-3-yl]carbonyl}amino)piperidine-1-carboxylate], 8.86.
With `O=C(NC1CCN(CC(F)(F)F)CC1)c1ccc(-c2ccccc2F)nc1` [Example 585, 6-(2-Fluorophenyl)-N-[1-(2,2,2-trifluoroethyl)piperidin-4-yl]nicotinamide] the figure was 9.13; with `CCOC(=O)N1CCC(NC(=O)c2ccc(-c3ccccc3F)nc2)CC1` [Example 586, Ethyl 4-({[6-(2-fluorophenyl)pyridin-3-yl]carbonyl}amino)piperidine-1-carboxylate], 9.10; with `O=C(NC1CCN(Cc2ccccn2)CC1)c1ccc(-c2ccccc2F)nc1` [Example 587, 6-(2-Fluorophenyl)-N-[1-(pyridin-2-ylmethyl)piperidin-4-yl]nicotinamide], 8.92.
Consider `O=C(NC1CCN(Cc2cccc(F)c2)CC1)c1ccc(-c2ccccc2F)nc1` [Example 588, N-[1-(3-Fluorobenzyl)piperidin-4-yl]-6-(2-fluorophenyl)nicotinamide], for which the pIC50 was 9.21.
In the case of `CC(C)N1CCC(NC(=O)c2ccc(-c3cccc(F)c3)nc2)C1` (stereo not shown) [Example 589, 6-(3-Fluorophenyl)-N-(1-isopropylpyrrolidin-3-yl)nicotinamide] it was 7.48; in that of `O=C(NC1CCN(c2ncc3c(n2)CCOC3)C1)c1ccc(-c2cccc(F)c2)nc1` (stereo not shown) [Example 590, N-[1-(7,8-Dihydro-5H-pyrano[43-d]pyrimidin-2-yl)pyrrolidin-3-yl]-6-(3-fluorophenyl)nicotinamide], 9.13.
Consider `CCCN1CCC(NC(=O)c2ccc(-c3cccc(F)c3)nc2)CC1` [Example 591, 6-(3-Fluorophenyl)-N-(1-propylpiperidin-4-yl)nicotinamide], for which the pIC50 is 8.25.
Consider `CNC(=O)N1CCC(NC(=O)c2ccc(-c3cccc(F)c3)nc2)CC1` [Example 592, 6-(3-Fluorophenyl)-N-{1-[(methylamino)carbonyl]piperidin-4-yl}nicotinamide], for which the pIC50 was 8.61.
With `O=C(NC1CCN(CC2CCOCC2)CC1)c1ccc(-c2cccc(F)c2)nc1` [Example 593, 6-(3-Fluorophenyl)-N-[1-(tetrahydro-2H-pyran-4-ylmethyl)piperidin-4-yl]nicotinamide] the figure was 8.70; with `CCOC(=O)N1CCC(NC(=O)c2ccc(-c3cccc(F)c3)nc2)C1` (stereo not shown) [Example 594, Ethyl 3-({[6-(3-fluorophenyl)pyridin-3-yl]carbonyl}amino)pyrrolidine-1-carboxylate], 8.57; with `O=C(NC1CCN(c2ncc3c(n2)CCC3)C1)c1ccc(-c2cccc(F)c2)nc1` (stereo not shown) [Example 595, N-[1-(6,7-Dihydro-5H-cyclopenta[d]pyrimidin-2-yl)pyrrolidin-3-yl]-6-(3-fluorophenyl)nicotinamide], 8.97.
